Non-standard residues stand in square brackets, D forms with d. Residues, ends and D or L forms follow the SMILES beside them. *: point of attachment. X1 = O=C(CCCC[C@@H]1SC[C@@H]2NC(=O)N[C@@H]21)NCCCOCCOCCOCCCN*; PEG12 = NCCOCCOCCOCCOCCOCCOCCOCCOCCOCCOCCOCCOCCC(=O)O
Key:
H1299 cells = test: Cell binding and internalization by flow cytometry, relative (normalized) uptake of peptide-streptavidin-phycoerythrin; type: cell-based, human
Procedure: MGS4 was initially selected by phage display biopanning of a peptide library on live cells. […] As such, multivalent binding is often required. To ascertain whether multivalent binding is required for MGS4 internalization, monomeric (MGS4_V2) and tetrameric (MGS4_V1) peptides were synthesized and labeled as described (Supplementary Figure 1). After incubation of varying peptide concentrations on live cells, surface-bound peptide was removed by low pH washes, as well as trypsinization. Relative internalization was measured by flow cytometry to determine an EC50 value which represents the concentration of peptide producing half-maximal internalization. This measurement is dependent on the affinity of the peptide for its cellular target and the rate of internalization. This is a more accurate representation of the biological situation and useful in evaluating the peptides as drug delivery agents. As expected for receptor-mediated endocytosis, uptake of MGS4 is saturable with increasing concentration.
Fig. 1 Monomeric and tetrameric MGS4 have similar binding, internalization and subcellular location. a Binding and internalization of tetrameric MGS4_V1 and monomeric MGS4_V2 on live H1299 cells in culture. Cells were incubated with the peptide conjugated to streptavidin-phycoerythrin for 1 h at 37 °C. Non-internalized peptide was removed and the cells were analyzed by flow cytometry. b H1299 cells were incubated with MGS4_V1 or MGS4_V2 conjugated to streptavidin-Alexa Fluor 555 (red) for 1 h, washed, fixed and counterstained with WGA-Alexa Fluor 488 (green, cell membrane) and DAPI (blue, nuclei) and analyzed by fluorescence microscopy. The scale bar represents 20 µm. MGS4_V1 and MGS4_V2 internalize to a similar degree and localize to a similar destination. c Truncated monomeric MGS4 peptides have similar EC50 as the parental full-length peptide. Individual measurements are shown. The mean is shown as an “X” and black error bars represent standard error for a minimum of three experimental replicates (SEM). All original binding data and nonlinear regression analysis of the data are included in the supplementary materials.
Biotinylated peptide was conjugated to streptavidin-R-phycoerythrin or streptavidin-Alexa Fluor 647 (1:1 molar ratio) for 30 min. The open binding sites on streptavidin were quenched with RPMI 1640 and diluted to the indicated concentration. Tumor cells were grown to 90% confluency in a 12 well plate, then incubated with 500 µl peptide-dye conjugate at 37 °C. After 1 h, peptide was removed, and the cells were washed 3x with PBS (137 mM NaCl, 2.7 mM KCl, 10 mM Na2HPO4, 1.8 mM KH2PO4, pH 7.4), 2x with 0.1 M HCl-glycine pH2.2 in 0.9% NaCl, and 1x PBS rinse. Cells were removed by trypsinization. Flow cytometry was performed on a BD FACSCelesta, and data were analyzed on Flowing software. Cells were gated based on the forward and side scatter to include only viable cells and a minimum of 10,000 events were counted. A region containing <5% of the cells in the negative control was established, and relative peptide uptake by the mean fluorescence intensity of that population. For absolute peptide uptake per cell, a standard curve was generated using Quantum™ Alexa Fluor 647 microspheres (Bangs Laboratory, Fishers, IN). A representative linear regression showing the correlation of molecule equivalents soluble fluorophores (MESF) vs the mean fluorescence intensity (MFI) is shown in Supplemental Figure 6. Cells were gated based on the forward and side scatter to include only viable cells and a minimum of 10,000 events were counted. MFI was determined at 50% at peak height. Molecules internalized per cell were determined by the standard curve relating MESF to MFI and divided by the number dye molecules/MGS conjugate. An example is shown in supplemental Figure 7. GraphPad Prism® was used for non-linear regression curve fitting to calculate an EC50. […]

H1299 xenograft tumor = test: Tumor homing by near infrared imaging; type: in vivo, mouse
Source text: Animal experiments were approved by SRI International’s Institutional Animal Care and Use committee (Animal Welfare Assurance Number A3025-01, protocol 14008). H2009 cells (10^6) or H1299 cells (10^6) were implanted subcutaneously on the flank of female Nu/Nu mice (Jackson Laboratory, Bar Harbor, ME). When tumors reached 100 mm^3, in vivo experiments were initiated. For imaging, the indicated peptides were conjugated directly to Alexa Fluor 750 near-infrared dye (Supplemental Fig. 1). Four animals per group were used. Peptides were injected into the lateral tail vein for a total dose 15 µgs/mouse delivered in 100 µL. At set period of times, animals were anesthetized and imaged on an IVIS® (Perkin Elmer). Regions of interest were drawn around the tumor and the total radiant efficiency was measured. For therapeutic experiments, we chose to use the H2009 tumor model as it has a higher tumor take rate and more consistent growth rate than the H1299 model. Biotinylated MGS4_V8 (N = 9) or MGS4_V6 (N = 8) were conjugated to streptavidin-saporin and administered via tail-vein injection (7.5 µg/100 µl) 2x/week for 2.5 weeks for a total of 5 treatments. Nontreated animals (N = 8) served as the control. Tumor size was measured with calipers every other day and volume was calculated as (π/6)(l*w)^3/2. Statistical analysis was performed on GraphPad Prism®.
Supplemental Figure 1. […]
-Qdot605, streptavidin-R- phycoerythrin, and streptavidin-saporin. b) For NIR imaging experiments, Alexa Fluor 750 was directly conjugated to the peptide by the reaction of maleimide modified dye with a thiol containing MGS4_V8 peptide. c ) The structure of the monomeric MGS4 used for serum stabilities. […]
Supplemental Figure 5. MGS4_V8 homes to H12 99 xenograft tumor after systemic delivery.
H1299 tumor bearing nude mice ( N=4 ) were injected I.V. with MGS4_V8 or MGS4_V6 conjugated to NIR dye Alexa Fluor 750. At 24, 48, and 72 hours post injection, mice were anesthetized and imaged on an IVIS® (Perkin E lme r ) to measure total radiant efficiency in each tumor. MGS4_V8 accumulates in tumor ≈3-fold better than control peptide, MGS4_V6. MGS4_V6 accumulation is statistically no different than […]
untreated tumo rs. […]
A standard curve was generated using Quantum ™ Alexa Fluor 647 microspheres (Bangs Laboratory, Fishers, IN). A representative linear regression showing the correlation of molecule equivalents soluble fluorophores (MESF) vs the mean fluorescence intensity (MFI) is shown. The MFI is determined at 50% […]
Supplemental Figure 7. Example of flow cytometry data: MGS4_V10 Uptake on H1993 Cells .
The gating strategy, cell population data , and MFI determination for an example binding experiment is shown. Cells were gated by forward and side scatter to exclude nonviable cells or cell clusters as shown.
Individual dot plots and histograms are shown for a concentration range of 0.1 nM – 50 nM. The MFI is determined at 50% peak height. Molecules internalized per cell were determined by the standard curve relating MESF to MFI and divided by the number dye molecules/MGS conjugate.

Row | Molecule | Bmax (best-fit) (H1299 cells; Supplementary Table 2, normalized binding) | Total Radiant Efficiency (H1299 xenograft tumor; 24 h, Mouse 1) | Total Radiant Efficiency (H1299 xenograft tumor; 24 h, Mouse 2) | Total Radiant Efficiency (H1299 xenograft tumor; 24 h, Mouse 3) | Total Radiant Efficiency (H1299 xenograft tumor; 24 h, Mouse 4) | Total Radiant Efficiency (H1299 xenograft tumor; 48 h, Mouse 1) | Total Radiant Efficiency (H1299 xenograft tumor; 48 h, Mouse 2) | Total Radiant Efficiency (H1299 xenograft tumor; 48 h, Mouse 3) | Total Radiant Efficiency (H1299 xenograft tumor; 48 h, Mouse 4) | Total Radiant Efficiency (H1299 xenograft tumor; 72 h, Mouse 1) | Total Radiant Efficiency (H1299 xenograft tumor; 72 h, Mouse 2) | Total Radiant Efficiency (H1299 xenograft tumor; 72 h, Mouse 3) | Total Radiant Efficiency (H1299 xenograft tumor; 72 h, Mouse 4) | fold tumor accumulation versus control peptide MGS4_V6 (H1299 xenograft tumor; H1299 tumors, 24-72 h, Alexa Fluor 750 conjugate, N=4) | EC50 (nM) (H1299 cells; H1299 cells, 1 h at 37 °C, normalized uptake, one-site specific binding fit, Average ± SEM, minimum 3 replicates)
1 | CC(=O)N[C@@H](Cc1ccccc1)C(=O)N[C@@H](Cc1c[nH]cn1)C(=O)N[C@@H](C)C(=O)N[C@H](C(=O)N1CCC[C@H]1C(=O)N[C@@H](CCC(N)=O)C(=O)N[C@@H](CO)C(=O)N[C@@H](Cc1ccccc1)C(=O)N[C@@H](Cc1ccc(O)cc1)C(=O)N[C@H](C(=O)NCCOCCOCCOCCOCCOCCOCCOCCOCCOCCOCCOCCOCCC(=O)N[C@@H](CCC(=O)NCCCOCCOCCOCCCNC(=O)CCCC[C@@H]1SC[C@@H]2NC(=O)N[C@@H]21)C(N)=O)[C@@H](C)O)C(C)C [MGS4_V8] (Ac-FHAVPQSFYT[PEG12]E(X1)-NH2) | 1.423 | 1.32e+009 | 1.83e+009 | 9.57e+008 | 2.96e+009 | 9.13e+008 | 9.76e+008 | 7.72e+008 | 1.71e+009 | 9.42e+008 | 7.37e+008 | 1.06e+009 | 1.35e+009 | ≈ 3 fold | 
2 | *HAVPQSFYT** [MGS4_V6] |  | 7.74e+008 | 4.6e+008 | 7.58e+008 | 3.13e+008 | 5.44e+008 | 3.19e+008 | 3.39e+008 | 3.19e+008 | 5.46e+008 | 3.28e+008 | 3.61e+008 | 4.28e+008 |  | Not Detected^2

— paper PMC9845330 (Communications Biology, 2023)
